Reference: BindingDB's records for doi:10.1016/j.bmcl.2008.05.016 (Astrazeneca R&D Boston, 2008)

Test: Inhibition of Cdk1

Row | Compound | IC50 [µM]
1 | CCN(CC)CCOc1ccc(-c2cc(C(=O)NC3CCNCC3)c(NC(N)=O)s2)cc1 [1-(5-(4-(2-(diethylamino)ethoxy)phenyl)-3-(piperidin-4-ylcarbamoyl)thiophen-2-yl)urea] | > 69
2 | CCN(CC)CCOc1ccc(-c2cc(C(=O)NC3CCNC3)c(NC(N)=O)s2)cc1 (configuration not stated) [1-(5-(4-(2-(diethylamino)ethoxy)phenyl)-3-(pyrrolidin-3-ylcarbamoyl)thiophen-2-yl)urea] | > 100
3 | CCN(CC)CCOc1ccc(-c2cc(C(=O)Nc3cccnc3)c(NC(N)=O)s2)cc1 [1-(5-(4-(2-(diethylamino)ethoxy)phenyl)-3-(pyridin-3-ylcarbamoyl)thiophen-2-yl)urea] | 44
4 | NC(=O)Nc1sc(-c2cccc(Cl)c2)cc1C(=O)N[C@H]1CCCNC1 [1-(3-((S)-piperidin-3-ylcarbamoyl)-5-(3-chlorophenyl)thiophen-2-yl)urea] | 8.8
5 | CN(C)c1ccc(-c2cc(C(=O)N[C@H]3CCCNC3)c(NC(N)=O)s2)cc1 [(S)-1-(5-(4-(dimethylamino)phenyl)-3-(piperidin-3-ylcarbamoyl)thiophen-2-yl)urea] | 8.4
6 | NC(=O)Nc1sc(-c2ccc(C(=O)N3CCCCC3)cc2)cc1C(=O)N[C@H]1CCCNC1 [(S)-1-(3-(piperidin-3-ylcarbamoyl)-5-(4-(piperidine-1-carbonyl)phenyl)thiophen-2-yl)urea] | 10.8

Stronger by IC50, values ahead:

Row | IC50 [µM] | Compound
7 | 2.2 | CS(=O)(=O)c1ccc(-c2cc(C(=O)N[C@H]3CCCNC3)c(NC(N)=O)s2)cc1 [(S)-1-(5-(4-(methylsulfonyl)phenyl)-3-(piperidin-3-ylcarbamoyl)thiophen-2-yl)urea]
8 | 1.8 | NC(=O)Nc1sc(-c2ccncc2)cc1C(=O)N[C@H]1CCCNC1 [(S)-1-(3-(piperidin-3-ylcarbamoyl)-5-(pyridin-4-yl)thiophen-2-yl)urea]
9 | 3.3 | NC(=O)Nc1sc(-c2ccc(F)cc2)cc1C(=O)N[C@H]1CCCNC1 [(S)-1-(5-(4-fluorophenyl)-3-(piperidin-3-ylcarbamoyl)thiophen-2-yl)urea]
10 | 3.7 | CN(C)C(=O)c1ccc(-c2cc(C(=O)N[C@H]3CCCNC3)c(NC(N)=O)s2)cc1 [(S)-1-(5-(4-(dimethylcarbamoyl)phenyl)-3-(piperidin-3-ylcarbamoyl)thiophen-2-yl)urea]
11 | 5.5 | Cc1ccc(-c2cc(C(=O)N[C@H]3CCCNC3)c(NC(N)=O)s2)cc1 [(S)-1-(3-(piperidin-3-ylcarbamoyl)-5-p-tolylthiophen-2-yl)urea]
12 | 5.6 | NC(=O)Nc1sc(-c2cccc(F)c2)cc1C(=O)N[C@H]1CCCNC1 [1-(3-((S)-piperidin-3-ylcarbamoyl)-5-(3-fluorophenyl)thiophen-2-yl)urea]
